Results published in patent US11931374B2, “Adenosine receptor modulators for the treatment of circadian rhythm disorders” (OXFORD UNIVERSITY INNOVATION LIMITED, priority 2016, dated 2024).

Key:
Per1 = Per1 mRNA within the SCN after intraperitoneal injection; format: in vivo, mice; conditions: 4 h after intraperitoneal injection
Text: SCN Tissue Collection: Animals were housed under a 12:12 LD cycle for 2 weeks with food and water ad libitum. Animals then received either a drug injection with a alteration in the light dark cycle as described in the experiment and at set points following drug administration were sacrificed by cervical dislocation. Sham-treated mice not given a light pulse were dissected at each time point. Brains were removed and placed into a brain matrix (Kent Scientific, Torrington CT, USA). Per2::Luc transgenic animals (as reported in Yoo et al, Proc Natl Acad Sci USA. 2004 Apr. 13; 101(15):5339-46) were obtained from Prof Joseph Takahashi, Northwestern University. […]
(§1) Total RNA was extracted using the microRNeasy column method (Qiagen, Hilden, Germany). Quality and quantity of RNA were measured using an Agilent Bioanalyzer and a Nanodrop1000 (Thermo Fisher Scientific, Waltham, MA USA), respectively.
RNA samples were prepared as described for microarray hybridisation. cDNA was synthesized with a qScript cDNA synthesis kit (Quanta Biosciences, Gaithersburg, MD), and quantitative PCR (qPCR) was conducted with Sybr green I and an SDS7700 thermal cycler (Applied Biosystems, Foster City, CA). Relative quantification of transcript levels was done as described previously (Peirson et al., Nucleic Acids Res. 2003 Jul. 15; 31(14):e73.). […]

Fos = Fos mRNA after drug treatment; format: cell-based; conditions: 10 uM
Method: as §1
(§2) RNA samples were prepared as described for microarray hybridisation. cDNA was synthesized with a qScript cDNA synthesis kit (Quanta Biosciences, Gaithersburg, MD), and quantitative PCR (qPCR) was conducted with Sybr green I and an SDS7700 thermal cycler (Applied Biosystems, Foster City, CA). Relative quantification of transcript levels was done as described previously (Peirson et al., Nucleic Acids Res. 2003 Jul. 15; 31(14):e73.). The geometric mean of a minimum of three housekeeping genes was used for normalization (Gapdh, ActB, GusB and Rps9 for example).

Per2 = Per2 mRNA levels in U2OS cells by qPCR; format: cell-based
Method: as §1, §2
Cells from the U2OS (HTB-96) line were obtained, tested and identified. The cells were cultured in T-75 flasks, in Dulbecco's modified Eagle medium (DMEM) supplemented with 10% foetal bovine serum (FBS) and 1% penicillin-streptomycin (P/S) at 37° C. in a humidified atmosphere at 5% CO2. The cells were subcultured every 2 to 4 days in a 1:2 to 1:6 ratio, in accordance with the ATCC recommendations. The cells were counted using a haemocytometer, and their viability in a culture was maintained at above 95%, measured with a Presto Blue exclusion assay according to the manufacturer's specifications. Cells were transfected with siRNAs (typically at 50 nM concentrations, sequences as previously listed), the CRE::Luc (pGL4.29[luc2P/CRE/Hygro] Vector, encoding Luc2P […] under the control of a strong cAMP response element (CRE) promoter containing 3 CRE elements within its sequence; Promega) reporter vector or cAMP-GLOSensor plasmid (Promega) as per manufacturer's instructions using either Lipofectamine RNAimax (Invitrogen) or Lipofectamine3000 (Invitrogen).

[1] = tested on: intracellular levels of cAMP; assay: cAMP GloSensor assay in U2OS cells; format: cell-based
Method: The GloSensor™ cAMP Assay (Promega) was used for detecting changes in the intracellular levels of cAMP. Initially, a Greiner Bio-One 96 Well Plate (white, TC treated) was seeded at 8000 cells per 100 μl well, as described above. After 24 hours, the cells were transfected with the pGloSensor™ cAMP Plasmid using the Viafect transfection reagent as above. Between 24 and 48 hours later, allowing for the accumulation of the biosensor, the medium in the 96 well plate was changed to C02-Independent Medium supplemented with GlutaMAX™ (Life Technologies), 10% fetal bovine serum and 2% GloSensor™ cAMP Reagent. The plate was then stood for 2 hours at room temperature to equilibrate. Following the incubation period, the cells were treated with relevant drugs and their luminescence values were measured after 20 minutes in the BMG FLUOstar OPTIMA Microplate Reader, with forskolin as a positive control, and DMSO as a negative control.

C57Bl/6 mice = assay: Phase shifting of circadian activity in response to a light pulse with drug; format: in vivo; conditions: light at CT16
Method: Animals were maintained in a 12 h light (white) 12 h dark (grey) cycle and vehicle was administered just before a 30 min 400 lux light pulse (white bar) at time CT 22 (or 10 hours after lights off). All light cues were then removed to allow the animals free running clock to express. A gap in the lines on the day after the light pulse was administered indicates a phase shift.
Animals were maintained in a 12 h light (white) 12 h dark (grey) cycle and IB-MECA (1 mg/kg) was administered just before a 30 min 400 lux light pulse (white bar) at time CT 22 (or 10 hours after lights off).
Animals were housed under a reversed 12:12 LD cycle (400 lux from white LED lamps) with food and water ad libitum. For phase-shifting studies, C57Bl/6 mice were maintained on running wheels in light tight chambers on a 12:12 LD cycle (400 lux from white LED lamps) and injected with drug at the indicated time points. The drugs were formulated in a vehicle consisting of 5% Koliphor-HS15 (Sigma-Aldrich, UK) 5% Cyclodextran (Sigma-Aldrich, UK) in 0.9% saline. […] Where measuring phase-shifting, the mice were then placed in DD and allowed to free run for 14 days in DD, running wheel activity data was collected and analysed on Clocklab (Actimetrics, Wilmette, IL). […]

[2] = tested on: Bmal1::Luc reporter U2OS cells; assay: Bmal1::Luc reporter U2OS cells circadian rhythm; format: cell-based; conditions: 10 uM

Compound: Nc1nc(-c2ccccc2)c2c(n1)-c1cc(OCCN3CCOCC3)ccc1C2=O [JNJ40255293, 2-amino-8-[2-(4-morpholinyl)ethoxy]-4-phenyl-5H-indeno[1,2-d]pyrimidin-5-one]
- Per1 mRNA levels within the SCN (Per1): increase
- Fos mRNA (Fos): Upregulation
- Per2 transcription (Per2; 4 h post-drug treatment): significantly increased
- Per2 mRNA (Per2; U2OS cell cultures, 10 uM): Robust increases
- Per2 mRNA levels (Per2; U2OS cells, 30 uM): elevated
- Per2 mRNA levels / expression (Per2; U2OS cells, qPCR, concentration not given): induce the expression of Per1 and Per2
- cAMP levels [1]: does not elevate cAMP levels
- increase in cAMP ([1]; 30 uM): 50%
- phase-shifts in response to light (C57Bl/6 mice): enhances phase-shifts in response to light at CT16
- period length [2]: increases in period length
- rhythms after washout of drug [2]: revert to normal rhythms after washout of drug
